The source of these data is PubChem BioAssay (NCI).

SMILES strings stand for the structures. “And” between values parts separate entries of the source, which are not always exact repeats. Equal values may be shown once.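 Dose response: 5 concentrations. Exposure: 48 h. Format: 96-well plates. Endpoint: linear interpolation; highest concentration if not reached. Abbreviation: GI50, concentration required for 50% inhibition of growth. Definition used: TGI = concentration required for complete inhibition of growth.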 A value given as a limit tells only on which side of the number the result lay.

Assay in all cases: NCI tumour cell line growth inhibition, 48 h
In assay [1] the test system is SF-539 CNS.
The subject of assay [2] is SK-MEL-5 melanoma.
Assay [3] concerns OVCAR-4 ovarian.
For assay [4], the system named is SNB-19 CNS.
Assay [5] has as its system NCI/ADR-RES ovarian.
For assay [6], the system named is CAKI-1 renal.
For assay [7], the system named is T-47D breast.
The test system of assay [8] is UO-31 renal.
In assay [9] the test system is KM12 colon.
In assay [10] the test system is MOLT-4 leukemia.

In the case of `CCOC(=O)c1[nH]c(Br)c(-c2ccc(Br)cc2)c1Br`, the GI50 in assay [1] is 0.298 µM; in assay [4] it was 0.454 µM; in assay [5] it was 0.407 µM; in assay [6], 0.49 µM; in assay [7] it was 2.66 µM; in assay [8] it was 1.13 µM. In addition, the GI50 in [9] is 0.302 µM. Further, the TGI in assay [1] is 1.85 µM and 0.858 µM; in assay [2], 19.1 µM; in assay [3], 3.6 µM and 3.5 µM; in [4], 10.4 µM; in assay [6], 3.06 µM and 2.62 µM; in [7], 65.7 µM. The TGI in [8] was 5.71 µM and 8.57 µM; in assay [9] it was 16 µM; in assay [10], 11.4 µM.
Turning to `CC(=O)[C@@]1(O)CC[C@H]2[C@@H]3C[C@H](C)C4=CC(=O)CC[C@]4(C)[C@H]3[C@@H](O)C[C@@]21C`, the TGI in assay [1], in assay [2], in [3], in assay [4], in assay [5] and in assay [6] was > 100 µM in each case. In addition, the TGI in assay [7], in assay [8], in assay [9] and in [10] was > 100 µM in each case.
Consider `CC[C@H](Nc1nc(NCc2cnc(C)cc2C)c2ncn(C(C)C)c2n1)[C@@H](C)O`, for which the GI50 is 0.24 µM in assay [1]; 0.219 µM in [2]; 0.631 µM in assay [3]; 0.318 µM in assay [4]; 1.97 µM in [5]; 0.269 µM in assay [6]. Also, the GI50 in [7] is 0.402 µM; in [8] it was 0.272 µM; in [9] it was 0.312 µM; in assay [10] it was 0.339 µM. For the same compound, the TGI in assay [1] is 0.781 µM; in assay [2] it was 0.498 µM; in assay [3] it was 11.5 µM; in assay [4] it was > 100 µM; in assay [5] it was > 31 µM; in assay [6], > 100 µM. Besides, the TGI in assay [7] is > 100 µM; in assay [8], > 100 µM; in assay [9] it was 12.2 µM; in assay [10], > 100 µM.
Turning to `O=c1c2ccccc2n(C[C@H]2CO2)c2ccccc12`, the GI50 was 1.77 µM in assay [1]; 1.52 µM in [2]; 2.4 µM in assay [3]; 2.3 µM in assay [4]; 1.7 µM in [5]; 1.83 µM in assay [6]. Moreover, the GI50 in [7] is 2.53 µM; in assay [8], 1.72 µM; in [9], 2.19 µM; in [10], 0.29 µM. For the same compound, the TGI in assay [1] was 3.68 µM; in assay [2] it was 2.9 µM; in assay [3], 7.89 µM; in assay [4], 7.79 µM; in assay [5], 6.25 µM; in [6], 8.26 µM. The TGI is 8.38 µM in [7], 4.96 µM in assay [8], 7.02 µM in [9] and 2.35 µM in assay [10].
Regarding `CCOc1ccc(-c2nonc2NC(=O)c2cccc(C)c2)cc1OCC`, the GI50 in assay [1] was 35.5 µM; in assay [2], > 100 µM; in [3], > 100 µM; in assay [4], 34.9 µM; in assay [5], > 100 µM; in [6], 74 µM. Further, the GI50 in assay [7], in [8], in assay [9] and in assay [10] was > 100 µM throughout. Moreover, the TGI in [1], in assay [2], in assay [3], in assay [4], in [5] and in assay [6] was > 100 µM throughout. Moreover, the TGI in [7], in [8], in assay [9] and in assay [10] was > 100 µM throughout.
On to `CC(C)(O)CS(=O)(=O)Nc1ccc2c(c1)CCN(C(=O)COc1cccnc1)C2`, for which the GI50 is < 0.0224 µM in assay [1]; > 100 µM in assay [2]; > 100 µM in assay [3]; 1.47 µM in assay [5]; > 92.4 µM in [6]; > 35.2 µM in assay [7]. Also, the GI50 in assay [8] is > 100 µM; in [9] it was 0.277 µM; in assay [10], > 100 µM. Moreover, the TGI in assay [1], in assay [2], in assay [3], in assay [4], in [5] and in assay [6] was > 100 µM each time. The TGI in [7], in assay [8], in [9] and in [10] was > 100 µM each time.
Turning to `C=CC(=O)N1CCN(c2nc(=O)n(-c3c(C)ccnc3C(C)C)c3nc(-c4c(O)cccc4F)c(F)cc23)[C@@H](C)C1`, the GI50 in assay [1] was 23.3 µM; in assay [2], 27.8 µM; in assay [3], 35.8 µM; in [4], 57.8 µM; in [5], > 100 µM; in assay [6], 40.3 µM. The GI50 in [7] is 40.9 µM; in assay [8] it was > 62.3 µM; in assay [9], 23.4 µM; in assay [10], 18.7 µM. Further, the TGI in assay [1] was 64.2 µM; in assay [2], > 59.1 µM; in [3] it was > 100 µM; in [4], > 100 µM; in [5], > 100 µM; in assay [6], > 100 µM. Also, the TGI in [7] is > 100 µM; in assay [8], > 100 µM; in [9] it was 54 µM; in assay [10] it was 71 µM.
In the case of `COc1cc2cc(Oc3ccc(NC(=O)Nc4cccc(C(F)(F)F)c4)cc3)c(C)nc2cc1OC`, the GI50 is 2.48 µM in assay [1]; 1.08 µM in assay [2]; 2.3 µM in assay [3]; 2.19 µM in assay [4]; 1.71 µM in assay [5]; 1.32 µM in assay [6]. Moreover, the GI50 was 1.61 µM in [7], 1.98 µM in assay [8], 1.42 µM in [9] and 1.55 µM in assay [10]. Further, the TGI in assay [1] came to 8.74 µM; in [2], 2.66 µM; in assay [3], 9.7 µM; in [4], 15 µM; in [5], 7.19 µM; in assay [6], 4.29 µM. Moreover, the TGI in [7] is 6.68 µM; in [8], 10.8 µM; in assay [9] it was 5.92 µM; in assay [10], 6.87 µM.
